Data set [1] can be described thus: Pharmacokinetic assay of compounds in mice. In kind it is in vivo, male ICR mice. The conditions noted are these: for Vd / AUC(0-t) / half-life / C0 / bioavailability / Cmax / Tmax: male, ICR, mouse, plasma; for Vd: read-out: Apparent volume of distribution Vd; for AUC(0-t): read-out: Area under the curve AUC0-last; for half-life: read-out: Half-life T1/2 (converted); for C0: read-out: Starting concentration C0; for bioavailability: PO 10 mg/kg vs IV 3 mg/kg, read-out: Bioavailability F %; for Cmax: read-out: Peak concentration Cmax; for Tmax: read-out: Time to peak Tmax. The source says: Assay purpose: 7-9-week-old male ICR mice were used as test animals. LC/MS/MS method was used to determine the drug concentration of the compound in the plasma at different times after a single intravenous injection (IV) and oral administration (PO) of the compound, to study the pharmacokinetic behavior of the compounds of the present disclosure in mice, and to evaluate their pharmacokinetic characteristics.
Formulation of drug: The compounds were formulated as solutions in the respective solvents for administration in IV (intravenous injection) and PO (oral administration) groups. The dose of each compound was 3 mg/kg for IV and 10 mg/kg for PO, and the vehicle was 10% DMSO+10% solutol+80% (10% HP-β-CD).

The target of data set [2] is Ba/F3-FL-EGFR (L858R/T790M/C797S) (Homo sapiens, UniProt P00533, T790M/C797S/L858R, cells depend on it). Description: Cell proliferation inhibition, CellTiter-Glo. In kind it is cell-based. The procedure: AdenosineTri-Phosphate (ATP) is an energy carrier shared by various life activities in nature, and is the smallest unit of energy storage and transfer. The CellTiter-Glo™ living cell assay kit uses luciferase as a detector, and luciferase requires the participation of ATP in the process of luminescence. CellTiter-Glo™ reagent is added to a cell culture medium, and the luminescence value is measured. The light signal is directly proportional to the amount of ATP in the system, and ATP is positively correlated with the number of living cells. Therefore, cell proliferation can be detected by detecting ATP content with the CellTiter-Glo kit. In this assay, the cell lines were Ba/F3-FL-EGFR (L858R/T790M/C797S), Ba/F3-FL-EGFR (WT), Ba/F3-FL-EGFR (L858R), Ba/F3-FL-EGFR (del19-S752-I759), Ba/F3-FL-EGFR (del19-E746-A750/T790M/C797S), Ba/F3-FL-EGFR (L858R/T790M), Ba/F3-FL-EGFR (del19-E746-A750/T790M), Ba/F3-TEL-EGFR (L858R/C797S), Ba/F3-FL-EGFR (del19-E746-A750/C797S) stably transfected cell lines.
The cell lines were cultured in an incubator at 37° C. and 5% CO2. The cells were periodically passaged, and cells in logarithmic growth phase were taken for plating.
a) DMSO was used to prepare a 10 mM solution of the compound to be tested, and then the compound to be tested was diluted to 0.3 or 1 mM with DMSO.
b) Preparation of 1000× compound storage plate (tube): DMSO was used to dilute by 3-fold gradient from the highest concentration to the lowest concentration, with a total of 9 concentrations.
c) Preparation of 20× compound working solution: 49 μL of cell culture medium was added to a flat-bottomed 96-well transparent drug plate, and 1 μL of compound was pipetted from the 1000× compound storage plate to the cell culture medium of the 96-well transparent drug plate. 1 μL of DMSO was added to the vehicle control. After adding compound or DMSO, the well content was mixed to uniform by aspiration and expelling with pipette.
a) Cells were stained with trypan blue and viable cells were counted. The cell viability rate was required to be above 90%.
b) 95 μL of cell suspension (2000 cells/well) was added to each well of the compound detection cell plate, and culture medium without cells (containing 0.1% DMSO) was added to the Min control well.
c) Dosing in the compound detection cell plate: 5 μL of 20× compound working solution was added to the cell culture plate. 5 μL of DMSO-cell culture mixture was added to the Max control. The final concentration of DMSO was 0.1%.
d) The culture plate was incubated in an incubator at 37° C., 5% CO2 for 72 hours.
Cell proliferation inhibition rate (Inhibition Rate) data were processed using the following formula:
Inhibition Rate (Inh %)=100−(RLUDrug−RLUMin)/(RLUMax−RLUMin)*100%.
The inhibition rates corresponding to different concentrations of compounds were calculated, and then GraphPad Prism software was used to draw the inhibition rate curve and the IC50 value was calculated.
A general note: Cellular ATP, detected with luciferase, serves as a proxy for viable cell number.

[3] abbreviates: 72 hours, read-out: Cell half-maximal inhibition concentration IC50 Ba/F3-FL-EGFR (L858R/T790M/C797S).

Structures are written as SMILES. Read-outs that look alike come from different tables or passages of the source.

Chain of Ba/F3-FL-EGFR (L858R/T790M/C797S) (P00533 whole entry T790M/C797S/L858R): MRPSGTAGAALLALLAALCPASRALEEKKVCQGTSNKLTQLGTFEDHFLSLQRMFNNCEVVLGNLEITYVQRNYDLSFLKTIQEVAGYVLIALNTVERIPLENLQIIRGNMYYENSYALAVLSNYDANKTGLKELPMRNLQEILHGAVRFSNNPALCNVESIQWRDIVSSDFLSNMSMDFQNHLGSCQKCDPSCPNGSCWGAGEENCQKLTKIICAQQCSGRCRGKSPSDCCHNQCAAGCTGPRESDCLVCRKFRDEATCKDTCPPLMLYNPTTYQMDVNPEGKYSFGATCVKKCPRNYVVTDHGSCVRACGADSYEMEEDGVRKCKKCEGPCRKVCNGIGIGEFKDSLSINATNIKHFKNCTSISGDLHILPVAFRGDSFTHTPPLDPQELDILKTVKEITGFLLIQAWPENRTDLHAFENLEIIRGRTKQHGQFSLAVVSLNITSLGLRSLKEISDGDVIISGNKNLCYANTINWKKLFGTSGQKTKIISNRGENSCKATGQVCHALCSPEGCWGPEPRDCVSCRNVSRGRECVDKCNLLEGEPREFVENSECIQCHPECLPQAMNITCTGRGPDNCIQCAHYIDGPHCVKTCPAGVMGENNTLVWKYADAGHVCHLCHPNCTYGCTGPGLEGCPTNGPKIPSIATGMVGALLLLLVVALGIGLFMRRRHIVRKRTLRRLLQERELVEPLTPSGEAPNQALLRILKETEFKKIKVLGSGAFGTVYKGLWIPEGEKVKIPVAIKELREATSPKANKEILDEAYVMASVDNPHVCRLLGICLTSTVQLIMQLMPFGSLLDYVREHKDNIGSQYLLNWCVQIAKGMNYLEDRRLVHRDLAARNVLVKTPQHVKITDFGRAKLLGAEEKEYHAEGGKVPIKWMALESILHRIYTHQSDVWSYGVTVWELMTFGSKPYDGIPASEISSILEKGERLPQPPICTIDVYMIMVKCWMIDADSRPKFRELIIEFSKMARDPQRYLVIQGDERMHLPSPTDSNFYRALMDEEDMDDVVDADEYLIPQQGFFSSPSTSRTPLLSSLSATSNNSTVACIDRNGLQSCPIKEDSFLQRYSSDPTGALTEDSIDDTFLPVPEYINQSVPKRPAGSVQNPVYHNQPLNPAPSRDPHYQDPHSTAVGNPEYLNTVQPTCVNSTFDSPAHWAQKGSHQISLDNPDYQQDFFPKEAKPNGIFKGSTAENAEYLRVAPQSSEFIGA

As to `Cc1cc2cc(n1)-c1cnn(C)c1OCCC[C@@H](C)CN1/C(=N/C2=O)Nc2ccc(N=S(C)(C)=O)cc21` [WX-006], in data set [1] (IV 3 mg/kg), the “Apparent clearance Cl” value is 14.6 mL/min/kg, the Vd turned out to be 1.9 L/kg, the AUC(0-t) came to 6.54 µM·h and the half-life is 3.6 h. For the same compound, the C0 in data set [1] (IV 3 mg/kg) stood at 8.14 µM. In addition, the bioavailability in data set [1] stood at 83%. In data set [1] (PO 10 mg/kg), the AUC(0-t) is 18.1 µM·h, the Cmax worked out at 3.59 µM and the time to peak (Tmax) is 1.5 h.
With `Cc1cc2cc(n1)-c1cnn(C)c1OCCC[C@@H](C)CN1/C(=N/C2=O)Nc2ccc(N=S3(=O)CCOCC3)cc21` [WX-013], in data set [1] (IV 3 mg/kg), the “Apparent clearance Cl” value came to 4.7 mL/min/kg, the Vd came to 1 L/kg, the AUC(0-t) worked out at 18.9 µM·h and the half-life was 3.3 h. The C0 in data set [1] (IV 3 mg/kg) came out at 12.1 µM. Besides, the bioavailability in data set [1] amounted to 34%. Also, in data set [1] (PO 10 mg/kg), the AUC(0-t) amounted to 21.5 µM·h, the Cmax is 3.94 µM and the Tmax is 1 h. Also, the GI50 in data set [2] (read-out: Cell half-maximal inhibition concentration IC50 Ba/F3-FL-EGFR (L858R/T790M/C797S), 72 hours) turned out to be 4.3 nM.
In the case of `Cc1cc2cc(n1)-c1cnn(C)c1OCCC[C@@H](C)CN1/C(=N/C2=O)Nc2ccc(N=S3(=O)CCCC3)cc21` [WX-010 (trifluoroacetate)], in data set [1] (IV 3 mg/kg), the “Apparent clearance Cl” value is 5.7 mL/min/kg, the Vd worked out at 1 L/kg, the AUC(0-t) worked out at 16.1 µM·h and the half-life was 2.8 h. Further, the C0 in data set [1] (IV 3 mg/kg) came out at 8.14 µM. The bioavailability in data set [1] is 56%. Moreover, in data set [1] (PO 10 mg/kg), the AUC(0-t) is 30.1 µM·h, the Cmax turned out to be 4.49 µM and the Tmax is 1 h. Further, in data set [2] (setting [3]), the GI50 was determined as 2.8 nM.
Take `Cc1cc2cc(n1)-c1cnn(C)c1OCCC[C@@H](C)CN1/C(=N/C2=O)Nc2ccc(N=S(C)(C)=O)c(Cl)c21` [WX-019]: in data set [1] (IV 3 mg/kg), the “Apparent clearance Cl” value was found to be 8.6 mL/min/kg, the Vd worked out at 1.6 L/kg, the AUC(0-t) was determined as 10.6 µM·h and the half-life is 2.5 h. Further, in data set [1] (IV 3 mg/kg), the C0 was 5.73 µM. Further, the bioavailability in data set [1] amounted to 65%. For the same compound, in data set [1] (PO 10 mg/kg), the AUC(0-t) turned out to be 23.2 µM·h, the Cmax is 3.92 µM and the Tmax was 1 h. In data set [2] (setting [3]), the GI50 worked out at 5.7 nM.
On to `Cc1cc2cc(n1)-c1cnn(C)c1OC[C@H]1CC[C@H](C1)CN1/C(=N/C2=O)Nc2ccc(N=S(C)(C)=O)cc21` (single isomer, unassigned) [WX-027A], for which, in data set [1] (IV 3 mg/kg), the “Apparent clearance Cl” value was found to be 14.2 mL/min/kg, the Vd amounted to 1 L/kg, the AUC(0-t) worked out at 7.7 µM·h and the half-life was 1.1 h. Moreover, the C0 in data set [1] (IV 3 mg/kg) was determined as 6.85 µM. For the same compound, the bioavailability in data set [1] was determined as 64%. In data set [1] (PO 10 mg/kg), the AUC(0-t) was determined as 15.7 µM·h, the Cmax was found to be 5.91 µM and the Tmax amounted to 0.8 h. Also, the GI50 in data set [2] (setting [3]) is 8.6 nM.

A word on the bioavailability: it is dose-corrected exposure relative to a reference, in per cent. The Tmax is the time from dosing to the highest level.

The values are drawn from US20250084097A1, “MACROCYCLIC AMIDE COMPOUNDS AND APPLICATION THEREOF” (Medshine Discovery Inc., priority 2021, published 2025).
